Assay results as given in US7186534B1 (The Trustees of Columbia University in the City of New York, priority 1997, dated 2007).
Entries after “also recorded” stand apart in the source; their conditions may differ.

Experiments:
Format in all cases: biochemical
human 9cRDH (h9cRDH) [1] = target: T1, human 9cRDH (h9cRDH) (Homo sapiens, UniProt Q92781); experiment: Retinaldehyde isomer reduction by recombinant human 9cRDH; conditions: for h9cRDH specific activity, retinaldehyde reduction: substrate 10 μM, 15 min, 150–180 μg protein/assay, NADH, pH 5.0
T1 sequence (Q92781 1-318): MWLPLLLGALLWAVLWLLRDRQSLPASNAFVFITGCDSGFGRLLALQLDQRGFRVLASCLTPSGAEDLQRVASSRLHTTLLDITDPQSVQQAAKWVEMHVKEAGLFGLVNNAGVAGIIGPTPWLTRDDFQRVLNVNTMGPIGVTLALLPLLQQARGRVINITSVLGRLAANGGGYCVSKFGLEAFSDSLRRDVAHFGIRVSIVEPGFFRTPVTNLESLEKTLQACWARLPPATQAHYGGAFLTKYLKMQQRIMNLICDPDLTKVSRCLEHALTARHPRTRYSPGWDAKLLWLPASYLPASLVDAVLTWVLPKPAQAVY
Method: (§1) Enzymatic Assays. Assays for human and mouse 9cRDH were carried out essentially as were described previously for human 9cRDH (19). For expression of mouse 9cRDH a cDNA clone obtained from a mouse liver cDNA library was employed (see below). Recombinant human or mouse 9cRDH expressed in CHO cells was incubated in an assay mixture containing 10 μM 9-cis-retinol (added in 0.02 mL ethanol) and 2 mM NAD in 10 mM Hepes, pH 8.0, containing 150 mM KCl, 1 mM EDTA, and 50 μg phosphotidyl choline for 15 min at 37° C. (final assay volume of 0.6 ml) with agitation. This assay mixture was used routinely to measure oxidation of 9-cis-retinol to 9-cis-retinaldehyde and in studies assessing oxidation of 11-cis-, 13-cis- and all-trans-retinol to their corresponding aldehydes. For some experiments, the ability of human or mouse 9cRDH to catalyze the reduction of 9-cis-, 11-cis-, 13-cis- or all-trans-retinaldehyde was assessed. To assess these reduction reactions, incubations were carried out in 100 mM sodium acetate, pH 5.0, containing 50 μg phosphotidyl choline and 2 mM NADH (or 2 mM NADPH) in a final volume of 0.6 ml for 15 min at 37° C.
(§2) Immediately following incubation of the assay, the assay mixture was denatured with an equal volume of absolute ethanol (0.6 ml), and the retinoids extracted into 2.5 ml of hexane. Following one backwash of the hexane extract with 0.5 ml of deionized water, the hexane was evaporated to dryness under a gentle stream of N2. The extracted retinoids were immediately redissolved in 120 μl of hexane and analyzed by normal phase HPLC as described below.

mouse 9cRDH (m9cRDH) [2] = target: T2, mouse 9cRDH (m9cRDH) (Mus musculus, UniProt O55240); experiment: Retinaldehyde isomer reduction by recombinant mouse 9cRDH; conditions: for m9cRDH specific activity, retinaldehyde reduction: substrate 10 μM, 15 min, 150–180 μg protein/assay, NADH, pH 5.0
T2 sequence (O55240 1-318): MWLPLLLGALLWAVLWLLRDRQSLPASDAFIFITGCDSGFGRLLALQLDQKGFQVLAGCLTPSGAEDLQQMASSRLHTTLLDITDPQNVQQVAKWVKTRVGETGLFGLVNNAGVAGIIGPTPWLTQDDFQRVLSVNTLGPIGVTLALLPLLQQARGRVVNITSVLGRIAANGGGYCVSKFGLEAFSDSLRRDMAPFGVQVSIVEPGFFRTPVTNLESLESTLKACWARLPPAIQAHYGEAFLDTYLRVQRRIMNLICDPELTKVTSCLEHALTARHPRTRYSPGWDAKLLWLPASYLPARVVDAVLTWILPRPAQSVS
Method: as §1, §2

human 9cRDH (h9cRDH) [3] = target: T1, human 9cRDH (h9cRDH); experiment: Retinol isomer oxidation by recombinant human 9cRDH (substrate and cofactor specificity); conditions: for h9cRDH specific activity, retinol oxidation: substrate 10 μM, 15 min, 150–180 μg protein/assay, NAD+
Method: Enzymatic Assay of Retinol Dehydrogenase Activity. Transfected CHO cell pellets were homogenized in PBS at 4° C. using 50 strokes of a Dounce homogenizer For assay of retinol dehydrogenase activity, aliquots of unfractionated CHO cell homogenate were incubated with 10, μM retinol (either as the all-trans, 13-cis, or 9-cis isomer added in ethanol) and either 2 mM NAD+ or 2 mM NADP+ in 10 mM Hepes containing 150 mM KCl, 1 mM EDTA, and 10, μg/ml phosphotidyl choline at pH 8.0 and 37° C. for prechosen time intervals. The final assay volume was 0.6 ml. Assays were routinely carried out in amber glass tubes that had been flushed with N2 to shield the retinoids from both light and O2 All subsequent extractions and procedures were carried out in a manner that minimized exposure of the retinoids to light and O2.
Immediately following incubation, the assay mixture was denatured with an equal volume of absolute ethanol (0.6 ml), and the retinoids were extracted into 3 ml of HPLC grade hexane. Following one backwash of the hexane extract with 0.5 ml of deionized water, the hexane was evaporated to dryness under a gentle stream of N2, and the extracted retinoids were immediately redissolved in 120 μl of hexane and analyzed by normal phase HPLC (see below).
HPLC Procedures. Stereoisomers of both retinol and retinaldehyde were separated on a 4.6×250-mm Vydac 101HS54 silica column using hexane:n-propanol:1-octanol (98.9:1.0:0.1 v/v) flowing at 1.5 ml/min as the mobile phase. The running column was preceded by a silica guard column. Retinols and retinaldehydes were detected by UV absorbance at 350 nm. Retention times for all-trans-, 13-cis-, and 9-cis-retinols were established using purified compounds obtained as described above. Retention times for all-trans-, 13-cis-, and 9-cis-retinaldehyde were determined using commercial standards (Sigma). Quantities of each retinol and retinaldehyde isomer present in extracts were determined by comparisons of the integrated areas under the HPLC peaks with a standard curve constructed relating integrated peak area with known masses of each retinoid isomer. The concentrations of each retinoid isomer were determined by UV-visible spectrophotometry using published extinction coefficients for each retinol and retinaldehyde isomer (26).
as §1, §2

mouse 9cRDH (m9cRDH) [4] = target: T2, mouse 9cRDH (m9cRDH); experiment: Retinol isomer oxidation by recombinant mouse 9cRDH; conditions: for m9cRDH specific activity, retinol oxidation: substrate 10 μM, 15 min, 150–180 μg protein/assay, NAD+
Method: as §1, §2

[5] = target: T3, human 9-cis retinol dehydrogenase (9cRDH) (Homo sapiens, UniProt Q92781); experiment: Inhibition of recombinant human 9cRDH activity (9-cis-retinol oxidation, CHO cell homogenate, HPLC); conditions: 10 μM 9-cis-retinol
T3 sequence (Q92781 1-318): T1 sequence (Q92781 1-318)

mouse 9cRDH = target: T4, mouse 9cRDH (Mus musculus, UniProt O55240); experiment: Inhibition of recombinant mouse 9cRDH activity (9-cis-retinol oxidation, CHO cell homogenate, HPLC); conditions: 10 μM 9-cis-retinol
T4 sequence (O55240 1-318): T2 sequence (O55240 1-318)

[6] = equimolar concentrations, any substrate

CC1=C(/C=C/C(C)=C/C=C/C(C)=C\C=O)C(C)(C)CCC1 [13-cis-retinaldehyde]
h9cRDH specific activity, retinaldehyde reduction (human 9cRDH (h9cRDH) [1]): 744 pmol/min/mg protein | m9cRDH specific activity, retinaldehyde reduction (mouse 9cRDH (m9cRDH) [2]): 748 pmol/min/mg protein

CC1=C(/C=C/C(C)=C/C=C/C(C)=C\CO)C(C)(C)CCC1 [13-cis-retinol]
rate of oxidation relative to that observed for 9-cis-retinol (human 9cRDH (h9cRDH) [3]; first series, 2 mM NAD+, 10 μM retinol): 10% | h9cRDH specific activity, retinol oxidation (human 9cRDH (h9cRDH) [3]): 0.3 pmol/min/mg protein | m9cRDH specific activity, retinol oxidation (mouse 9cRDH (m9cRDH) [4]): 2.0 pmol/min/mg protein

NC(=O)c1ccc[n+]([C@@H]2O[C@H](COP(=O)([O-])OP(=O)(O)OC[C@H]3O[C@@H](n4cnc5c(N)ncnc54)[C@H](OP(=O)(O)O)[C@@H]3O)[C@@H](O)[C@H]2O)c1 [NADP+]
cofactor activity relative to NAD+ for 9-cis-retinol oxidation (human 9cRDH (h9cRDH) [3]; both at 2 mM): 8% | reaction rate supported relative to NAD+, human 9cRDH retinol oxidation (human 9cRDH (h9cRDH) [3]; [6]): ≤ 10% | reaction rate supported relative to NAD+, mouse 9cRDH retinol oxidation (mouse 9cRDH (m9cRDH) [4]; [6]): ≤ 10%

CC1=C(/C=C/C(C)=C/C=C/C(C)=C/CO)C(C)(C)CCC1 [all-trans Retinol, All-trans-retinol]
inhibition of human 9cRDH activity (in words) ([5]; listed as all-trans retinol): did not inhibit | inhibition of human 9cRDH activity (in words) ([5]; listed as all-trans-retinol): only very weak inhibitors; also recorded: did not inhibit | inhibition of mouse 9cRDH activity (in words) (mouse 9cRDH): only very weak inhibitors | oxidation to the corresponding retinaldehyde by transfected CHO cell homogenate (in words) (human 9cRDH (h9cRDH) [3]; 2 mM NAD+): unable to catalyze the oxidation | h9cRDH specific activity, retinol oxidation (human 9cRDH (h9cRDH) [3]): 0.5 pmol/min/mg protein | m9cRDH specific activity, retinol oxidation (mouse 9cRDH (m9cRDH) [4]): 0.6 pmol/min/mg protein

CC1=C(/C=C/C(C)=C/C=C/C(C)=C/C=O)C(C)(C)CCC1 [all-trans-retinaldehyde]
h9cRDH specific activity, retinaldehyde reduction (human 9cRDH (h9cRDH) [1]): 1.1 pmol/min/mg protein | m9cRDH specific activity, retinaldehyde reduction (mouse 9cRDH (m9cRDH) [2]): 1.3 pmol/min/mg protein

NADPH
reaction rate supported relative to NADH, human 9cRDH retinaldehyde reduction (human 9cRDH (h9cRDH) [1]; [6]): ≤ 10% | reaction rate supported relative to NADH, mouse 9cRDH retinaldehyde reduction (mouse 9cRDH (m9cRDH) [2]; [6]): ≤ 10%
